The target in the experiment is acetylcholinesterase (AChE) (Tetronarce californica, UniProt P04058). The experiment in a line: Ellman colorimetric AChE assay with acetylthiocholine iodide and DTNB, […] nm, triplicate. The format is biochemical. In general terms: Ellman's reagent forms a yellow product with free thiols.
Chain of acetylcholinesterase (AChE) (P04058 22-564): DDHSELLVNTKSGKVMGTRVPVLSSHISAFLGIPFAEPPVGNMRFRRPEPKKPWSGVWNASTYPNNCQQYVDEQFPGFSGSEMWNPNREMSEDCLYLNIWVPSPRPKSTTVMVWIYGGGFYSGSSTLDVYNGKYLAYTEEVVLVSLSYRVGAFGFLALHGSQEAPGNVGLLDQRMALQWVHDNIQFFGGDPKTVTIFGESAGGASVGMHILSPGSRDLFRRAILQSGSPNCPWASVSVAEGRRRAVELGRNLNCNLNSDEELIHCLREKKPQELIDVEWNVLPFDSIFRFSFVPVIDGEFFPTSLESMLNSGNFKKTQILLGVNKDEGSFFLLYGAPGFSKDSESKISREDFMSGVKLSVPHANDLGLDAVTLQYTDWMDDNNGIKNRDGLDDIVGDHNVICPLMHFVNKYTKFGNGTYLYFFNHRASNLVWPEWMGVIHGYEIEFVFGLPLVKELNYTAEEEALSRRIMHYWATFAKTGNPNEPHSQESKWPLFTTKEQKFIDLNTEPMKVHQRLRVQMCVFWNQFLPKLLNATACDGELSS

Broadly, the IC50 is the concentration that inhibits the measured activity by half. Higher therefore signals a need for much substance. Regarding `Cc1nc2ccccc2c2cc[nH]c12` [compound 1, 4-Methyl-3H-pyrrolo[2,3-c]quinoline], inhibition was half-maximal at 4.9 ± 0.9 µM (IC50).
